# ChEMBL document CHEMBL6103650, “Hybrid Molecules of Benzothiazole and Hydroxamic Acid as Dual-Acting Biofilm Inhibitors with Antibacterial Synergistic Effect against Pseudomonas aeruginosa Infections” (J Med Chem, 2025)
# Assays:
# Pseudomonas aeruginosa [1] = experiment: Antibiofilm activity against Pseudomonas aeruginosa PAO1 assessed as inhibition of biofilm formation incubated for 24 hrs by crystal violet staining based analysis; assay type: functional, organism-based; settings: PAO1, 24 h
# Pseudomonas aeruginosa [2] = experiment: Antibacterial activity against Pseudomonas aeruginosa PAO1 assessed as inhibition of bacterial growth incubated for 24 hrs by serial dilution method; assay type: functional
# Pseudomonas aeruginosa [3] = experiment: Antibiofilm activity against Pseudomonas aeruginosa PA14 assessed as inhibition of biofilm formation incubated for 24 hrs by crystal violet staining based analysis; assay type: functional, organism-based; settings: PA14, 24 h
# Pseudomonas aeruginosa [4] = experiment: Antibacterial activity against Pseudomonas aeruginosa PAO1 infected in BALB/c mouse wound infection model assessed as reduction in wound area at 0.0025 mg/mL administered to wound once a day for 3 days and measured after 9 days in dropwise manner; assay type: functional; parameters: scale not given: the % may be the effect or the level left; settings: time 12 day
# Pseudomonas aeruginosa [5] = experiment: Antibacterial activity against Pseudomonas aeruginosa PAO1 infected in BALB/c mouse wound infection model assessed as reduction in wound area at 0.5 mg/mL administered to wound once a day for 3 days and measured after 9 days in dropwise manner; assay type: functional; parameters: scale not given: the % may be the effect or the level left; settings: time 12 day
# Pseudomonas aeruginosa [6] = experiment: Antibacterial activity against Pseudomonas aeruginosa PAO1 infected in BALB/c mouse wound infection model assessed as bacterial survival rate in wound at 0.5 mg/mL administered to wound once a day for 3 days in dropwise manner; assay type: functional; settings: PAO1, 72 h, time 3 day
# Pseudomonas aeruginosa [7] = experiment: Antibiofilm activity against Pseudomonas aeruginosa PAO1 assessed as reduction in pFe(III) content incubated for 24 hrs; assay type: functional
Compound,IC50 (Pseudomonas aeruginosa [1]) [µM],MIC (Pseudomonas aeruginosa [2]) [µM],IC50 (Pseudomonas aeruginosa [3]) [µM],Activity (Pseudomonas aeruginosa [4]) [%],Activity (Pseudomonas aeruginosa [5]) [%],survival at 500 µg/mL (Pseudomonas aeruginosa [6]) [%],Activity (Pseudomonas aeruginosa [7])
O=C(CCCCNC(=O)CNc1nc2ccc(C(F)(F)F)cc2s1)NO,1.72,> 256,4.26,,,,
Cc1ccc2nc(NCC(=O)Nc3ccc(CC(=O)NO)cc3)sc2c1,1.64,> 256,4.33,,,,
COc1cccc2sc(NCC(=O)NCc3ccc(CC(=O)NO)cc3)nc12,2.85,> 256,7.78,,,,
COc1cccc(NCC(=O)NCCCCC(=O)NO)c1,> 80,> 256,> 100,,,,
O=C(CCCCCCNC(=O)CNc1nc2ccccc2s1)NO,8.77,> 256,14,,,,
Cc1ccc2nc(NCC(=O)NCc3ccc(CC(=O)NO)cc3)sc2c1,2.03,> 256,5.6,,,,
COc1ccccc1NCC(=O)NCCCCC(=O)NO,26.9,> 256,54.5,,,,
Cc1ccc2nc(NCC(=O)NCCCCC(=O)NO)sc2c1,0.79,> 256,2.21,,,,
O=C(Cn1cc(CNc2nc3ccc(Cl)cc3s2)nn1)NO,10.2,> 256,17.5,,,,
O=C(Cc1ccc(CNC(=O)CNc2nc3ccc(C(F)(F)F)cc3s2)cc1)NO,3.16,> 256,7.3,,,,
O=C(Cc1ccc(CNC(=O)CNc2nc3cc(F)ccc3s2)cc1)NO,3.17,> 256,7.9,,,,
COc1ccc2nc(NCC(=O)NCCCCCC(=O)NO)sc2c1,1.6,> 256,3.85,,,,
O=C(CCCCCCNC(=O)CNc1nc2ccc(C(F)(F)F)cc2s1)NO,3.25,> 256,6.65,,,,
COc1ccc2sc(NCC(=O)NCCCCC(=O)NO)nc2c1,1.29,> 256,3.41,,,,
O=C(CCCCNC(=O)CNc1ccccc1)NO,> 80,> 256,> 100,,,,
O=C(CCCCCCNC(=O)c1nc2ccccc2s1)NO,14.3,> 256,36.4,,,,
O=C(CCCCNC(=O)CNc1nc2cc(F)ccc2s1)NO,14.7,> 256,28.9,,,,
O=C(CCCCCNC(=O)CNc1nc2ccc(C(F)(F)F)cc2s1)NO,3.67,> 256,11.7,,,,
O=C(CCCCNC(=O)CNc1nc2cc(Cl)ccc2s1)NO,7.02,> 256,15,,,,
COc1ccc2nc(NCc3cn(CC(=O)NO)nn3)sc2c1,1.94,> 256,5.09,,,,
COc1ccc2nc(NCC(=O)NCCCCN)sc2c1,> 80,> 256,> 100,,,,
CCOc1ccc2nc(NCC(=O)NCc3ccc(CC(=O)NO)cc3)sc2c1,4,> 256,13.4,,,,
O=C(Cc1ccc(CNC(=O)CNc2nc3ccc(Br)cc3s2)cc1)NO,1.17,> 256,2.93,,,,
COc1ccc2nc(NCC(=O)NCCCC(=O)NO)sc2c1,5.15,> 256,15.2,,,,

Compound,IC50 (Pseudomonas aeruginosa [1]) [µM],MIC (Pseudomonas aeruginosa [2]) [µM],IC50 (Pseudomonas aeruginosa [3]) [µM],Activity (Pseudomonas aeruginosa [4]) [%],Activity (Pseudomonas aeruginosa [5]) [%],survival at 500 µg/mL (Pseudomonas aeruginosa [6]) [%],Activity (Pseudomonas aeruginosa [7])
COc1cccc2sc(NCC(=O)Nc3ccc(CC(=O)NO)cc3)nc12,1.42,> 256,3.92,,,,
O=C(Cn1cc(CNc2nc3ccc(C(F)(F)F)cc3s2)nn1)NO,2.03,> 256,5.42,,,,
COC(=O)CCCCNC(=O)CNc1nc2ccc(OC)cc2s1,14.7,> 256,18.4,,,,
O=C(CCCCNC(=O)CNc1nc2ccc(Br)cc2s1)NO,1.49,> 256,4.49,,,,
COc1ccc2nc(NCC(=O)NC3CCC(C(=O)NO)CC3)sc2c1 (centres undefined),6.64,> 256,14.7,,,,
CC[C@H]1OC(=O)[C@H](C)[C@@H](O[C@H]2C[C@@](C)(OC)[C@@H](O)[C@H](C)O2)[C@H](C)[C@@H](O[C@@H]2O[C@H](C)C[C@H](N(C)C)[C@H]2O)[C@](C)(O)C[C@@H](C)CN(C)[C@H](C)[C@@H](O)[C@]1(C)O [AZITHROMYCIN],11,> 256,38.5,,,,
O=C(Cn1cc(CNC(=O)c2nc3ccccc3s2)nn1)NO,12.8,> 256,24.4,,,,
O=C(CCCCNC(=O)CNc1nc2ccccc2s1)NO,3.33,> 256,7.02,,,,
O=C(CCCCNC(=O)CNc1nc2ccc(Cl)cc2s1)NO,2.05,> 256,5.67,,,,
O=C(CCCCCNC(=O)c1nc2ccccc2s1)NO,10.2,> 256,19.1,,,,
O=C(CCCCCNC(=O)CNc1nc2ccccc2s1)NO,1.58,> 256,4.26,,,,
O=C(CCCCCCNC(=O)CNc1nc2ccc(Cl)cc2s1)NO,13.6,> 256,24.4,,,,
O=C(NO)c1ccc(CNC(=O)c2nc3ccccc3s2)cc1,3.85,> 256,11.1,,,,
NC[C@H]1O[C@H](O[C@H]2[C@H](O)[C@@H](O[C@H]3O[C@H](CO)[C@@H](O)[C@H](N)[C@H]3O)[C@H](N)C[C@@H]2N)[C@H](N)C[C@@H]1O [TOBRAMYCIN],,,,41,36,0.22,
O=C(CCCCNC(=O)CNc1nccs1)NO,14.8,> 256,30.9,,,,
COc1ccc2nc(NCC(=O)NCc3ccc(CC(=O)NO)cc3)sc2c1,6.23,> 256,15.6,,,,
O=C(CCCCNC(=O)CNc1nc2ccc(F)cc2s1)NO,2.01,> 256,5.26,,,,
O=C(Cc1ccc(CNC(=O)CNc2nc3cc(Br)ccc3s2)cc1)NO,2.48,> 256,6.3,,,,
COc1cccc2sc(NCC(=O)NCCCCC(=O)NO)nc12,0.51,> 256,1.89,,,,
COc1ccc(NCC(=O)NCCCCC(=O)NO)cc1,> 80,> 256,> 100,,,,
O=C(CCCCCNC(=O)CNc1nc2ccc(Cl)cc2s1)NO,20.9,> 256,36.6,,,,
O=C(CCCNC(=O)c1nc2ccccc2s1)NO,1.89,> 256,4.29,,,,
Cc1c(O)c(=O)ccn1C [DEFERIPRONE],,,,,,,20.13
